Results reported in patent US8492410B2, “Pyridine derivatives as sphingosine 1-phosphate (S1P) receptor modulators” (Allergan, Inc., priority 2010, dated 2013).

Molecular target: T1, human S1P1 receptor (Homo sapiens, UniProt P21453)
T1 construct: expressed in transfected cells; membranes were used
Assay: GTP γ35S binding assay for S1P1 activity
Assay type: biochemical
Settings: activity potency from GTP γ35S binding; 5 μg membrane protein, 30 min at 25° C., test compounds 0.08 to 5,000 nM
Experimental: Compounds were synthesized and tested for S1P1 activity using the GTP γ^35S binding assay. These compounds may be assessed for their ability to activate or block activation of the human S1P1 receptor in cells stably expressing the S1P1 receptor.
GTP γ^35S binding was measured in the medium containing (mM) HEPES 25, pH 7.4, MgCl2 10, NaCl 100, dithitothreitol 0.5, digitonin 0.003%, 0.2 nM GTP γ^35S, and 5 μg membrane protein in a volume of 150 μl. Test compounds were included in the concentration range from 0.08 to 5,000 nM unless indicated otherwise. Membranes were incubated with 100 μM 5′-adenylylimmidodiphosphate for 30 min, and subsequently with 10 μM GDP for 10 min on ice. Drug solutions and membrane were mixed, and then reactions were initiated by adding GTP γ^35S and continued for 30 min at 25° C. Reaction mixtures were filtered over Whatman GF/B filters under vacuum, and washed three times with 3 mL of ice-cold buffer (HEPES 25, pH7.4, MgCl2 10 and NaCl 100). Filters were dried and mixed with scintillant, and counted for ^35S activity using a 8-counter. Agonist-induced GTP γ^35S binding was obtained by subtracting that in the absence of agonist. Binding data were analyzed using a non-linear regression method. In case of antagonist assay, the reaction mixture contained 10 nM S1P in the presence of test antagonist at concentrations ranging from 0.08 to 5000 nM.

T1 sequence (P21453 whole entry): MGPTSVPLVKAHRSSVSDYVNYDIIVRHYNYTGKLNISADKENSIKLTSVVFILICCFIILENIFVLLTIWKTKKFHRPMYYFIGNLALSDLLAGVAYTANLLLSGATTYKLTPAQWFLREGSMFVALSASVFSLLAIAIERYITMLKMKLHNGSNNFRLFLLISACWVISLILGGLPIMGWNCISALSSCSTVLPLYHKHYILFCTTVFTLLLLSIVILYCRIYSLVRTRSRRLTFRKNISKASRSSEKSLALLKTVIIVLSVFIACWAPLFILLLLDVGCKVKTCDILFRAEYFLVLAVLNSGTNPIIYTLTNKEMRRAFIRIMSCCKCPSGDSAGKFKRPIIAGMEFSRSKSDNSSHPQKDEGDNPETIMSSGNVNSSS

SMILES | EC50
CNc1ncccc1-c1noc(C(Cc2ccc(C)c(C)c2)c2cccc(C(F)(F)F)c2)n1 (stereo not drawn) [3-(5-{2-(3,4-dimethylphenyl)-1-[3-(trifluoromethyl)phenyl]ethyl}-1,2,4-oxadiazol-3-yl)-N-methylpyridin-2-amine] | 167 nM
CNc1ncccc1-c1noc(C(Cc2ccc(C)c(C)c2)c2ccc(C(F)(F)F)cc2)n1 (stereo not drawn) [3-(5-{2-(3,4-dimethylphenyl)-1-[4-(trifluoromethyl)phenyl]ethyl}-1,2,4-oxadiazol-3-yl)-N-methylpyridin-2-amine] | 2260 nM
CNc1ncccc1-c1noc(C(Cc2cccc(C)c2)c2cccc(Cl)c2)n1 (stereo not drawn) [3-{5-[1-(3-chlorophenyl)-2-(3-methylphenyl)ethyl]-1,2,4-oxadiazol-3-yl}-N-methylpyridin-2-amine] | 125 nM
CNc1ncccc1-c1noc(C(Cc2ccc(CC(C)C)cc2)c2cccc(Cl)c2)n1 (stereo not drawn) [3-{5-[1-(3-chlorophenyl)-2-(4-isobutylphenyl)ethyl]-1,2,4-oxadiazol-3-yl}-N-methylpyridin-2-amine] | 2090 nM
CNc1ncccc1-c1noc(C(Cc2ccc(C)cc2)c2cccc(Cl)c2)n1 (stereo not drawn) [3-{5-[1-(3-chlorophenyl)-2-(4-methylphenyl)ethyl]-1,2,4-oxadiazol-3-yl}-N-methylpyridin-2-amine] | 78.3 nM
CNc1ncccc1-c1noc(C(CC2CCCCC2)c2cccc(Cl)c2)n1 (stereo not drawn) [3-{5-[1-(3-chlorophenyl)-2-cyclohexylethyl]-1,2,4-oxadiazol-3-yl}-N-methylpyridin-2-amine] | 348 nM
CNc1ncccc1-c1noc(C(CC2CCCC2)c2cccc(Cl)c2)n1 (stereo not drawn) [3-{5-[1-(3-chlorophenyl)-2-cyclopentylethyl]-1,2,4-oxadiazol-3-yl}-N-methylpyridin-2-amine] | 1860 nM
CNc1ncccc1-c1noc(C(Cc2ccccc2)c2cccc(Cl)c2)n1 (stereo not drawn) [3-{5-[1-(3-chlorophenyl)-2-phenylethyl]-1,2,4-oxadiazol-3-yl}-N-methylpyridin-2-amine] | 112 nM
CNc1ncccc1-c1noc(C(Cc2ccc(Cl)c(Cl)c2)c2ccc(Cl)cc2)n1 (stereo not drawn) [3-{5-[1-(4-chlorophenyl)-2-(3,4-dichlorophenyl)ethyl]-1,2,4-oxadiazol-3-yl}-N-methylpyridin-2-amine] | 2020 nM
CNc1ncccc1-c1noc(C(Cc2ccccc2)c2ccc(Cl)cc2)n1 (stereo not drawn) [3-{5-[1-(4-chlorophenyl)-2-phenylethyl]-1,2,4-oxadiazol-3-yl}-N-methylpyridin-2-amine] | 2400 nM
CNc1ncccc1-c1noc(C(Cc2ccc(C)c(C)c2)c2cncc(Cl)c2)n1 (stereo not drawn) [3-{5-[1-(5-chloropyridin-3-yl)-2-(3,4-dimethylphenyl)ethyl]-1,2,4-oxadiazol-3-yl}-N-methylpyridin-2-amine] | 14.5 nM
CNc1ncccc1-c1noc(C(Cc2ccc(C)c(C)c2)c2ccc(Cl)nc2)n1 (stereo not drawn) [3-{5-[1-(6-chloropyridin-3-yl)-2-(3,4-dimethylphenyl)ethyl]-1,2,4-oxadiazol-3-yl}-N-methylpyridin-2-amine] | 274 nM
CNc1ncccc1-c1noc(C(Cc2cc(C)cc(C)c2)c2ccc(Cl)nc2)n1 (stereo not drawn) [3-{5-[1-(6-chloropyridin-3-yl)-2-(3,5-dimethylphenyl)ethyl]-1,2,4-oxadiazol-3-yl}-N-methylpyridin-2-amine] | 2760 nM
CCc1cccc(C(Cc2ccc(C)c(C)c2)c2nc(-c3cccnc3NC)no2)c1 (stereo not drawn) [3-{5-[2-(3,4-dimethylphenyl)-1-(3-ethylphenyl)ethyl]-1,2,4-oxadiazol-3-yl}-N-methylpyridin-2-amine] | 61.8 nM

Results, then the molecule that gave them:

EC50 | SMILES
35.7 nM | CNc1ncccc1-c1noc(C(Cc2ccc(C)c(C)c2)c2cccc(F)c2)n1 (stereo not drawn) [3-{5-[2-(3,4-dimethylphenyl)-1-(3-fluorophenyl)ethyl]-1,2,4-oxadiazol-3-yl}-N-methylpyridin-2-amine]
77.6 nM | CNc1ncccc1-c1noc(C(Cc2ccc(C)c(C)c2)c2cccc(OC)c2)n1 (stereo not drawn) [3-{5-[2-(3,4-dimethylphenyl)-1-(3-methoxyphenyl)ethyl]-1,2,4-oxadiazol-3-yl}-N-methylpyridin-2-amine]
50.2 nM | CNc1ncccc1-c1noc(C(Cc2ccc(C)c(C)c2)c2cccc(C)c2)n1 (stereo not drawn) [3-{5-[2-(3,4-dimethylphenyl)-1-(3-methylphenyl)ethyl]-1,2,4-oxadiazol-3-yl}-N-methylpyridin-2-amine]
86.4 nM | CNc1ncccc1-c1noc(C(Cc2ccc(C)c(C)c2)c2cccc([N+](=O)[O-])c2)n1 (stereo not drawn) [3-{5-[2-(3,4-dimethylphenyl)-1-(3-nitrophenyl)ethyl]-1,2,4-oxadiazol-3-yl}-N-methylpyridin-2-amine]
1330 nM | CNc1ncccc1-c1noc(C(Cc2ccc(C)c(C)c2)c2ccc(OC)cc2)n1 (stereo not drawn) [3-{5-[2-(3,4-dimethylphenyl)-1-(4-methoxyphenyl)ethyl]-1,2,4-oxadiazol-3-yl}-N-methylpyridin-2-amine]
912 nM | CNc1ncccc1-c1noc(C(Cc2ccc(C)c(C)c2)c2ccccc2)n1 (stereo not drawn) [3-{5-[2-(3,4-dimethylphenyl)-1-phenylethyl]-1,2,4-oxadiazol-3-yl}-N-methylpyridin-2-amine]
533 nM | CNc1ncccc1-c1noc(C(Cc2ccc(C)cc2)c2ccsc2)n1 (stereo not drawn) [Compound 1, N-methyl-3-(5-(1-(thiophen-3-yl)-2-(p-tolyl)ethyl)-1,2,4-oxadiazol-3-yl)pyridin-2-amine]
66.4 nM | CNc1ncccc1-c1noc(C(Cc2ccc(C)c(C)c2)c2cccc(Cl)c2)n1 (stereo not drawn) [Compound 2, 3-{5-[2-(3,4-dimethylphenyl)-1-(3-chlorophenyl)ethyl]-1,2,4-oxadiazol-3-yl}-N-methylpyridin-2-amine]
50.6 nM | CNc1ncccc1-c1noc(C(Cc2ccc(C)c(C)c2)c2cccc(Br)c2)n1 (stereo not drawn) [Compound 3, 3-{5-[2-(3,4-dimethylphenyl)-1-(3-bromophenyl)ethyl]-1,2,4-oxadiazol-3-yl}-N-methylpyridin-2-amine]
470 nM | CNc1ncccc1-c1noc(C(Cc2ccc(C)c(C)c2)c2ccc(Cl)cc2)n1 (stereo not drawn) [Compound 10, 3-{5-[2-(3,4-dimethylphenyl)-1-(4-chlorophenyl)ethyl]-1,2,4-oxadiazol-3-yl}-N-methylpyridin-2-amine]
12 nM | CNc1ncccc1-c1noc(C(Cc2ccc(C)c(C)c2)c2cc(F)cc(F)c2)n1 (stereo not drawn) [Compound 23, 3-(5-(1-(3,5-difluorophenyl)-2-(3,4-dimethylphenyl)ethyl)-1,2,4-oxadiazol-3-yl)-N-methylpyridin-2-amine]
1240 nM | CNc1ncccc1-c1noc(C(Cc2ccccc2)c2ccccc2)n1 (stereo not drawn) [Compound 24, 3-(5-(1,2-diphenylethyl)-1,2,4-oxadiazol-3-yl)-N-methylpyridin-2-amine]
161 nM | CNc1ncccc1-c1noc(C(Cc2ccc(C)c(C)c2)c2cc(C)cc(C)c2)n1 (stereo not drawn) [Compound 25, 3-(5-(2-(3,4-dimethylphenyl)-1-(3,5-dimethylphenyl)ethyl)-1,2,4-oxadiazol-3-yl)-N-methylpyridin-2-amine]
928 nM | CNc1ncccc1-c1noc(C(Cc2ccc(C)cc2)c2cccs2)n1 (stereo not drawn) [Compound 26, N-methyl-3-(5-(1-(thiophen-2-yl)-2-(p-tolyl)ethyl)-1,2,4-oxadiazol-3-yl)pyridin-2-amine]
524 nM | CNc1ncccc1-c1noc(C(Cc2ccc(C)c(C)c2)c2cccs2)n1 (stereo not drawn) [Compound 27, 3-(5-(2-(3,4-dimethylphenyl)-1-(thiophen-2-yl)ethyl)-1,2,4-oxadiazol-3-yl)-N-methylpyridin-2-amine]
296 nM | CNc1ncccc1-c1noc(C(Cc2ccc(C)c(C)c2)c2ccsc2)n1 (stereo not drawn) [Compound 29, 3-(5-(2-(3,4-dimethylphenyl)-1-(thiophen-3-yl)ethyl)-1,2,4-oxadiazol-3-yl)-N-methylpyridin-2-amine]
